Measured values published in patent US10172946B2, “Monodisperse glycogen and phytoglycogen nanoparticles and use thereof as additives in cosmetics, pharmaceuticals, and food products” (Mirexus Biotechnologies Inc., priority 2013, dated 2019).

Test: Photostability of phytoglycogen-ethyl-4-aminocinnamate conjugate versus aminocinnamate
Type: physicochemical
Details: after 4 h of exposure to UV-irradiation, thin film
Procedure: Aminocinnamate and a phytoglycogen-ethyl-4-aminocinnamate conjugate were dissolved in ethanol or in water, respectively.
Solutions were deposited as thin films onto a quartz plate and dried in air for 30 min. After drying, the samples were irradiated with UV light, as in Example 11, for 4 h and then tested for their photostability.
Photodegradation was calculated from the decrease in the maximum absorption of the respective products.

CCOC(=O)C=Cc1ccc(N)cc1 [aminocinnamate, ethyl 4-aminocinnamate]
maximum absorbance retained: 40%
